Converted amounts (≈) assume the structure as drawn.
Details: buffer; pH 7.4; 200.0 µM

| SMILES | solubility kinetic [µg/mL] |
| --- | --- |
| Cc1sc2ccccc2[n+]1CC(=O)c1ccccc1.[Br-] | 42.6 |
| O=C(Nn1cnc2ccccc2c1=O)c1c(F)cccc1F | > 45.2 |
| Cc1cccc(C)c1NC(=O)c1c[nH]c2ccccc12 | > 39.6 |
| C=CCc1cccc(CNc2ccc(Br)cc2)c1O | 1.4 (≈ 4.4 µM) |
| O=C(CCCCCCCCN1C(=O)c2ccccc2C1=O)N1CCOCC1 | 43.4 (≈ 117 µM) |
| CC1CCCC(C)N1C(=O)COC(=O)c1cccs1 (stereo not given) | > 42.2 |
| O=C(N[C@H]1CC1c1ccccc1)c1ccc([N+](=O)[O-])cc1 (stereo not given in full) | 1.6 (≈ 5.67 µM) |
| COc1ccc(F)cc1S(=O)(=O)NCC1CCCO1 (stereo not given) | > 43.4 |
| CC(=O)Nc1ccc(SCC(=O)c2cc(C)ccc2C)cc1 | 28 (≈ 89.3 µM) |
| O=C(O)C1=C(C(=O)Nc2cc(C(F)(F)F)ccc2Cl)CCCC1 | 12.5 (≈ 35.9 µM) |
| Cc1ccc(N(C)C2=NC(=O)CS2)cc1Cl | 34.8 (≈ 137 µM) |
| Cc1cccc(C2=NOC(=O)/C2=C\c2ccccc2F)c1 | 6.5 (≈ 23.1 µM) |
| CS(=O)(=O)c1ccc2nc(NC(=O)CN3CCOCC3)sc2c1 | 40.6 (≈ 114 µM) |
| CCc1nc2cc3sc(CC)nc3cc2s1 | 0.6 (≈ 2.42 µM) |
| Cc1cccc(C)c1NC(=O)C(C)N1CCCCC1 (stereo not given) | 38.3 (≈ 147 µM) |
| CN(C)c1ccc(C=C2C(=O)NC(=O)NC2=O)cc1[N+](=O)[O-] | > 45.6 |
| Cc1ccc(C(=O)NCCc2ccc(F)cc2)s1 | 5.6 (≈ 21.3 µM) |
| COc1cccc(NC(=S)N2CCc3cc(OC)c(OC)cc3C2)c1 | 4.9 (≈ 13.7 µM) |
| Cc1ccccc1NC(=O)NC1(C(=O)N2CCC(O)CC2)CCCCC1 | 44.1 (≈ 123 µM) |
| Nc1c(C(=O)CSc2ccccn2)c(=O)[nH]c(=O)n1C1CC1 | 24.6 (≈ 77.3 µM) |
| COc1ccc(Br)c(C(=O)OCC(=O)N2CCc3ccccc32)c1 | 2.3 (≈ 5.89 µM) |
| Cn1ccnc1SCC(=O)c1c(N)n(C)c(=O)n(C)c1=O | 41.5 (≈ 134 µM) |
| O=C(CC(=O)c1ccccc1)Nc1ccccc1 | 29.5 (≈ 123 µM) |
| Cc1ccc(C(C)c2c(C)c([N+](=O)[O-])cc(C)c2[N+](=O)[O-])cn1 (stereo not given) | 13.4 (≈ 42.5 µM) |

| SMILES | solubility kinetic [µg/mL] |
| --- | --- |
| O=C(Nc1ccccc1)c1ccc(-c2ccc([N+](=O)[O-])cc2)o1 | 7.4 (≈ 24 µM) |
| COC(=O)c1ccc(C2NC(=O)CCC2[N+](=O)[O-])cc1 (stereo not given) | > 41.7 |
| CCN(C#N)c1nc(NC(C)C)nc(NC(C)(C)C)n1 | 37 (≈ 133 µM) |
| COc1ccc(CCNC(=O)CN(C)S(=O)(=O)c2ccc(OC)cc2)cc1 | > 58.9 |
| O=C(Nc1cccc(NC(=O)c2cccnc2)c1)c1ccccc1 | 21.9 (≈ 69 µM) |
| Cc1ccc([N+](=O)[O-])cc1S(=O)(=O)NCCc1cn2ccccc2n1 | 35 (≈ 97.1 µM) |
| CC(CCc1ccccc1)NC(=O)C(=O)c1c[nH]c2ccccc12 (stereo not given) | 0.9 (≈ 2.81 µM) |
| Cc1c(Cl)cccc1NC(=O)CCN1CCN(C)CC1 | > 44.4 |
| N#Cc1cc(C#N)c(SCC(=O)NCC2CCCO2)nc1N (stereo not given) | > 47.6 |
| Cc1cccc(N2C(=O)CN(Cc3ccccc3)C2=S)c1 | 10 (≈ 33.7 µM) |
| CN1C(=O)/C(=C2\SC(=S)N(CCCCCC(=O)O)C2=O)c2ccccc21 | 6 (≈ 15.4 µM) |
| Cc1ccc(NC(=O)CCl)c(C)c1 | > 29.7 |
| CCN1CCc2c(OCC(=O)N3CCCc4ccccc43)cccc2C1=O | > 54.7 |
| CC1CCCC(C)N1C(=O)COc1ccc([N+](=O)[O-])cc1Cl (stereo not given) | > 49 |
| N/C(=N\OC(=O)Cc1ccccc1)c1cccc(Br)c1 | 1.1 (≈ 3.3 µM) |
| O=C(COc1ccc(Cl)cc1)NCCNC(=O)c1ccccn1 | 47.6 (≈ 143 µM) |
| Oc1ccccc1Nc1nc(-c2ccccc2O)nc2ccccc12 | < 0.2 |
| O=C(NC1(C(F)(F)F)NC(=O)N(C2CCCCC2)C1=O)c1ccco1 (stereo not given) | 50.2 (≈ 140 µM) |
| O=[N+]([O-])c1ccc2nc(-c3ccncc3)[nH]c2c1 | 8 (≈ 33.3 µM) |
| O=C(COC(=O)c1cnccn1)Nc1ccccc1-c1ccccc1 | > 50 |
| NS(=O)(=O)c1cccc(NC(=O)CN2C(=O)C(=O)N(Cc3ccccc3)C2=O)c1 | 60.5 (≈ 145 µM) |
| O=C(COc1ccc2c(c1)OCO2)Nc1ccc(Cl)cn1 | 1.3 (≈ 4.24 µM) |
| CC(C)COc1ccc(C(=O)OCC(=O)NCc2cccs2)cc1 | 1.1 (≈ 3.17 µM) |
| CC(C)c1ccccc1NC1=NCCCS1 | 35 (≈ 149 µM) |

| SMILES | solubility kinetic [µg/mL] |
| --- | --- |
| CC(NC(=O)c1ccc(F)cc1)C1CC2CCC1C2 (stereo not given) | 6.9 (≈ 26.4 µM) |
| Fc1cccc(Cc2noc(CN3CCOCC3)n2)c1 | > 41.6 |
| COc1ccc(OC)c(Nc2c3ccccc3nc3ccccc23)c1 | 12.2 (≈ 36.9 µM) |
| Cn1cc(Br)c(C(=O)N2CCCCCC2)n1 | > 42.9 |
| Brc1ccccc1OCCCCN1CCCCC1 | 39.1 (≈ 125 µM) |
| CSc1ccc(C(=S)N2CCCC2)cc1 | 29.6 (≈ 125 µM) |
| COC(=O)c1cccnc1NC(=S)NC1CCCCC1 | 0.9 (≈ 3.07 µM) |
| COc1ccc(-c2cc(C(=O)Nc3cccc(O)c3)no2)cc1 | < 0.3 |
| Cc1ccccc1NC(=S)N1CCN(c2ccccc2C)CC1 | 0.6 (≈ 1.84 µM) |
| O=c1[nH]c(S)c(/C=C2\C=Nc3ccccc32)s1 | 9.6 (≈ 36.9 µM) |
| O=S(=O)(c1ccc(F)cc1)N1CC=C(c2ccccc2)CC1 | 2.6 (≈ 8.19 µM) |
| COCCNC(=O)/C(C#N)=C/C=C/c1ccccc1 | 28.9 (≈ 113 µM) |
| O=C(O)COCC(=O)N1CCCN(c2nc3ccc(Cl)cc3s2)CC1 | > 57.6 |
| Cc1csc(SCC(=O)N(C)C2CCS(=O)(=O)C2)n1 (stereo not given) | > 48.1 |
| N#Cc1c(Cl)cccc1N1CCC(C(N)=O)CC1 | > 39.6 |
| Cc1ccc(C(=O)NC(=O)OCCn2c(C)cnc2[N+](=O)[O-])cc1 | 48.2 (≈ 145 µM) |
| O=[N+]([O-])c1ccc(-n2ccnc2)cc1 | > 28.4 |
| N#CCc1ccc(OC(=O)Nc2ccccc2)cc1 | 36.4 (≈ 144 µM) |
| Cc1ccc(-n2c(SCC(N)=O)nnc2-c2cnccn2)cc1 | > 49 |
| CC1(C)Cc2ccccc2C(/C(C#N)=N/O)=N1 | > 34.1 |
| Cl.Clc1ccc(CNCC2CCCO2)c(Cl)c1 (stereo not given) | 37 |
| CCCCCC(=O)Oc1cccc(N2C(=O)C3CCCCC3C2=O)c1 (stereo not given) | 4.3 (≈ 12.5 µM) |
| O=C(CSc1ccc(F)cc1)Nc1cccc(S(=O)(=O)N2CCOCC2)c1 | > 61.6 |
| Cc1cc(C)c(N=C2SCC(=O)N2Cc2ccco2)c(C)c1 | 11.5 (≈ 36.6 µM) |

| SMILES | solubility kinetic [µg/mL] |
| --- | --- |
| O=C(Nc1ccccc1F)Nc1cccnc1Cl | 7.8 (≈ 29.4 µM) |
| O=C(CN1C(=O)NC2(CCCC2)C1=O)NCCc1ccccc1 | 44.8 (≈ 142 µM) |
| Cc1ccc(OCCCCCN2CCOCC2)cc1 | 32.3 (≈ 123 µM) |
| COC(=O)c1c(N)sc2c1CC(C)(C)OC2 | > 36.2 |
| COc1ccc(C(=O)COC(=O)CN2C(=O)C3CC=CCC3C2=O)c(OC)c1 (stereo not given) | 57.6 (≈ 149 µM) |
| Cc1cc(NC(=O)C2CC(=O)N(c3cccc(Cl)c3)C2)no1 (stereo not given) | 16.3 (≈ 51 µM) |
| CCc1ccccc1N(CC(=O)N1CCCCCC1)S(C)(=O)=O | 43.5 (≈ 129 µM) |
| O=[N+]([O-])c1cnc(Nc2ccc(Cl)cn2)c([N+](=O)[O-])c1 | 1.8 (≈ 6.09 µM) |
| CCN(CC)CCCNC(=S)Nc1ccc(Br)cc1 | > 51.6 |
| COc1ccc(OC)c(/C=C/C(=O)NC2=NCCS2)c1 | 4 (≈ 13.7 µM) |
| Cc1ccc(NC(=O)Cn2cc(C=O)c3ccccc32)cc1C | < 0.3 |
| CCOc1ccccc1NC(=O)COC(=O)c1cc(C)oc1C | 2.2 (≈ 6.93 µM) |
| O=c1c(N2CCOCC2)c(N2CCOCC2)c1=O | > 37.8 |
| O=C(O)CSc1ncnc2sc3c(c12)CCCC3 | > 42.1 |
| CC1Cc2ccccc2N1C(=O)COC(=O)c1ccc(Cl)nc1 (stereo not given) | 11.1 (≈ 33.6 µM) |
| O=C(NCCN1CCOCC1)C(Sc1ccccc1)c1ccccc1 (stereo not given) | > 53.5 |
| Cc1ccc(CN2CCC(CO)(CC3CCCCO3)CC2)o1 (stereo not given) | > 46.1 |
| Cc1ccc(NC2=CC(=O)C(=O)c3ccccc32)c(C)c1 | 3.5 (≈ 12.6 µM) |
| Cc1ccc(S(=O)(=O)N2CCc3ccccc3C2CC(=O)O)cc1 (stereo not given) | > 51.8 |
| COc1ccc(C(=O)NC(=S)NC(C)c2ccccc2)cc1 (stereo not given) | 2.6 (≈ 8.27 µM) |
| COc1cc(=O)[nH]c(SC(C)C(=O)Nc2cccc3ccccc23)n1 (stereo not given) | 0.9 (≈ 2.53 µM) |
| CCOc1cccc(C(=O)Nc2ccncc2)c1 | > 36.3 |
| Cc1ccc2nc(Cl)c(/C=C/C(=O)c3ccco3)cc2c1 | 15.4 (≈ 51.7 µM) |
| Cc1cccc(N2CC(C(=O)Nc3ccccc3N3CCOCC3)CC2=O)c1C (stereo not given) | > 59 |

| SMILES | solubility kinetic [µg/mL] |
| --- | --- |
| CCN1CCCC1CNS(=O)(=O)c1ccc(F)c(Cl)c1 (stereo not given) | 44.2 (≈ 138 µM) |
| COc1cc(C(=O)OCC(=O)NCC2CCCO2)cc(OC)c1OC (stereo not given) | > 53 |
| CC(C)c1ccc(C(O)Cc2nc3ccccc3n2C)cc1 (stereo not given) | 1.8 (≈ 6.11 µM) |
| Cn1cccc1C(=O)NCc1ccccn1 | > 32.3 |
| Cc1cc(=O)n2c(n1)SCOC2 | > 27.6 |
| CC(=O)O.O=S(=O)(Cc1ccccc1)N1CCNCC1 | 34.3 |
| COC(=O)CC1C(=O)NCCN1C(=O)c1cc([N+](=O)[O-])ccc1Cl (stereo not given) | 52.9 (≈ 149 µM) |
| COc1ccc(CNC(=O)COC(=O)c2cc(S(=O)(=O)N3CCOCC3)ccc2O)cc1OC | > 74.2 |
| Cc1ccc(CNCc2cccnc2)s1.Cl | > 38.2 |
| O=[N+]([O-])c1ccccc1S(=O)(=O)NCCSc1ccccc1 | 16.5 (≈ 48.8 µM) |
| Cc1cc(C(=O)NCCc2ccc(Cl)cc2)no1 | 18.6 (≈ 70.3 µM) |
| COc1ccc(N=C2NC(=O)/C(=C/C=C/c3ccccc3)S2)cc1 | < 0.4 |
| C=CCOCC(O)Cn1c(N2CCCC2)nc2c1c(=O)[nH]c(=O)n2C (stereo not given) | > 52.4 |
| COc1cccc(N=Cc2nc(-c3ccccc3)oc2OC(C)=O)c1 | 10.1 (≈ 30 µM) |
| CN(c1ccc(C(=O)COC(=O)C2CC2)cc1)S(C)(=O)=O | > 46.7 |
| O=C(NCCc1ccccc1)c1cccc(N2C(=O)C3CC=CCC3C2=O)c1 (stereo not given) | 47.2 (≈ 126 µM) |
| COc1cc2nc(NC(=O)c3ccc(Cl)cc3)sc(=O)c2cc1OC | 3.7 (≈ 9.82 µM) |
| COc1ccc(N2CCN(C(=O)/C=C/c3ccco3)CC2)cc1 | 10.5 (≈ 33.6 µM) |
| CC(C)[C@H](NC(=O)c1ccccc1F)C(=O)NC1CCCCCCC1 | 7.5 (≈ 21.5 µM) |
| Cc1cc(C)c2nc(Cl)c(C3NC(=O)c4ccccc4N3)cc2c1 (stereo not given) | < 0.2 |
| Cc1ccc(Nc2ccc(C(=O)O)cc2[N+](=O)[O-])cc1 | > 40.8 |
| O=C(CN1C2CCCC1CC(NC(=O)c1ccccc1)C2)NC1CC1 (stereo not given) | > 51.2 |
| O=C(Nc1nccs1)c1cc(Cl)nc2ccccc12 | 5.2 (≈ 17.9 µM) |
| CCCc1cc(C(=O)N2CCCN(C)CC2)cs1 | > 40 |

Reference: PubChem BioAssay AID1996
